Where a name gives a salt, the structure may show the parent alone.
What was measured:
LD50 in mice = conditions: mouse, in vivo
dogs = assay: Cardiac and Blood Pressure Effects in dogs (Table I); type: in vivo; conditions: for Contractile Potency ED50 / Contractile Potency ED100: i.v. infusion; for Blood Pressure Change at Effective dose ED50 / Heart Rate Increase at Effective dose ED50 / Blood Pressure Change at Effective dose ED100 / Heart Rate Increase at Effective dose ED100: i.v.

SMILES | LD50 (LD50 in mice) [mg/kg] | Contractile Potency ED50 (dogs) | Contractile Potency ED100 (dogs) | Blood Pressure Change at Effective dose ED50 (dogs; at ED50) [mm. Hg.] | Heart Rate Increase at Effective dose ED50 (dogs; at ED50) [Beats/minute] | Blood Pressure Change at Effective dose ED100 (dogs; at ED100) [mm. Hg.] | Heart Rate Increase at Effective dose ED100 (dogs; at ED100) [Beats/minute] | activity on contractile force (in words) (dogs; Table I data) | pressor activity (in words) (dogs; Table I data) | Contractile Potency ED50 (dogs; hydrochloride) [µg/kg/min] | Contractile Potency ED100 (dogs; hydrochloride) [µg/kg/min] | Blood Pressure Change at Effective dose ED50 (dogs; at ED50, hydrochloride) [mm. Hg.] | Heart Rate Increase at Effective dose ED50 (dogs; at ED50, hydrochloride) [Beats/minute] | Blood Pressure Change at Effective dose ED100 (dogs; at ED100, hydrochloride) [mm. Hg.] | Heart Rate Increase at Effective dose ED100 (dogs; at ED100, hydrochloride) [Beats/minute]
CC(Cc1ccc(O)c(O)c1)NCCCc1ccc(O)cc1 (racemic) [3,4-dihydroxy-N-[3-(4-hydroxyphenyl)-n-propyl]-α-methyl-β-phenethylamine hydrobromide] | 82.7 ± 5.72 | – | – | – | – | – | – | – | – | – | – | – | – | – | –
CC(CCc1ccc(O)cc1)NCCc1ccc(O)c(O)c1 (racemic) [dl-, 3,4-dihydroxy-N-[3-(4-hydroxyphenyl)-1-methyl-n-propyl]-β-phenethylamine] | 73.2 ± 3.68 | 3 ± 1 µg/kg/min | 10 ± 3 µg/kg/min | 3 ± 5 | 13 ± 4 | 6 ± 6 | 30 ± 4 | – | – | – | – | – | – | – | –
CC(CCc1ccc(O)cc1)NCCc1ccc(O)c(O)c1 (single isomer, unassigned) [d-, d-3,4-dihydroxy-N-[3-(4-hydroxyphenyl)-1-methyl-n-propyl]-β-phenethylamine] | – | 2.8 ± .3 µg/kg/min | 6.1 ± .4 µg/kg/min | 8 ± 2 | 11 ± 3 | 6 ± 3 | 28 ± 7 | – | – | – | – | – | – | – | –
CC(CCc1ccc(O)cc1)NCCc1ccc(O)c(O)c1 (single isomer, unassigned) [l-, l-3,4-dihydroxy-N-[3-(4-hydroxyphenyl)-1-methyl-n-propyl]-β-phenethylamine hydrochloride] | – | – | – | – | – | – | – | somewhat less active than either the d-isomer or dl-racemate on contractile force | marked pressor activity | 9 ± 2 | 25 ± 5 | 39 ± 3 | 8 ± 5 | 63 ± 4 | 28 ± 9

Source: patent publication US3987200A, “Method for increasing cardiac contractility” (Eli Lilly and Company, priority 1975, dated 1976)
